#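 In this assay, cells in 96-well plates receive the compound at five concentrations for 48 hours. Endpoints are linearly interpolated between the surrounding concentrations. TGI: concentration producing complete growth inhibition.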
# System: SK-MEL-5 melanoma
# Assay: inhibition of tumour cell growth, NCI panel, 48 h
row,Structure (SMILES),TGI
1,CC(=O)OCCOCNC(=S)N/N=C/c1ccc(Br)s1,> 100 µM
2,CCN(CC)CCNC(=O)c1ccc(C)c(OCc2ccccc2)c1[N+](=O)[O-],30.5 µM

# System: U251 CNS
# Assay: inhibition of tumour cell growth, NCI panel, 48 h
row,Structure (SMILES),TGI
1,OCCNCCOc1ccc(/C(=C(/Cl)c2ccccc2)c2ccccc2)cc1,21.1 µM
2,COc1cc(C(=O)C/C(CCC(=O)Nc2ccc(Cl)cc2Cl)=N/NC(=O)C(=O)NN)ccc1O,> 100 µM
3,c1ccc(CSc2nc3ccccc3nc2-c2cccs2)cc1,> 100 µM
4,CC(=O)OCCOCNC(=S)N/N=C/c1ccc(Br)s1,> 100 µM
5,CC1CN1c1c(C(=O)/C=C/c2ccc(Cl)cc2)c(-c2ccccc2)nn(C)c1=O (stereo unspecified),5.36 µM
6,COc1cc(C(=O)N2CCc3c([nH]c4c([N+](=O)[O-])c(OC)ccc34)C2C)cc(OC)c1OC (stereo unspecified),> 100 µM
7,CCN(CC)CCNC(=O)c1ccc(C)c(OCc2ccccc2)c1[N+](=O)[O-],> 84.1 µM

# System: HCC-2998 colon
# Assay: inhibition of tumour cell growth, NCI panel, 48 h
row,Structure (SMILES),TGI
1,COc1cc(C(=O)C/C(CCC(=O)Nc2ccc(Cl)cc2Cl)=N/NC(=O)C(=O)NN)ccc1O,> 100 µM
2,c1ccc(CSc2nc3ccccc3nc2-c2cccs2)cc1,> 100 µM
3,CC(=O)OCCOCNC(=S)N/N=C/c1ccc(Br)s1,> 100 µM
4,CC1CN1c1c(C(=O)/C=C/c2ccc(Cl)cc2)c(-c2ccccc2)nn(C)c1=O (stereo unspecified),4.2 µM
5,COc1cc(C(=O)N2CCc3c([nH]c4c([N+](=O)[O-])c(OC)ccc34)C2C)cc(OC)c1OC (stereo unspecified),> 100 µM
6,CCN(CC)CCNC(=O)c1ccc(C)c(OCc2ccccc2)c1[N+](=O)[O-],> 69.1 µM

# System: SW-620 colon
# Assay: inhibition of tumour cell growth, NCI panel, 48 h
row,Structure (SMILES),TGI
1,OCCNCCOc1ccc(/C(=C(/Cl)c2ccccc2)c2ccccc2)cc1,17.3 µM
2,COc1cc(C(=O)C/C(CCC(=O)Nc2ccc(Cl)cc2Cl)=N/NC(=O)C(=O)NN)ccc1O,> 100 µM
3,CC(=O)OCCOCNC(=S)N/N=C/c1ccc(Br)s1,> 100 µM
4,CC1CN1c1c(C(=O)/C=C/c2ccc(Cl)cc2)c(-c2ccccc2)nn(C)c1=O (stereo unspecified),6.81 µM
5,COc1cc(C(=O)N2CCc3c([nH]c4c([N+](=O)[O-])c(OC)ccc34)C2C)cc(OC)c1OC (stereo unspecified),> 100 µM
6,CCN(CC)CCNC(=O)c1ccc(C)c(OCc2ccccc2)c1[N+](=O)[O-],44 µM

# System: CCRF-CEM leukemia
# Assay: inhibition of tumour cell growth, NCI panel, 48 h
row,Structure (SMILES),TGI
1,OCCNCCOc1ccc(/C(=C(/Cl)c2ccccc2)c2ccccc2)cc1,9.87 µM
2,COc1cc(C(=O)C/C(CCC(=O)Nc2ccc(Cl)cc2Cl)=N/NC(=O)C(=O)NN)ccc1O,> 100 µM
3,c1ccc(CSc2nc3ccccc3nc2-c2cccs2)cc1,> 100 µM
4,CC(=O)OCCOCNC(=S)N/N=C/c1ccc(Br)s1,> 100 µM
5,CC1CN1c1c(C(=O)/C=C/c2ccc(Cl)cc2)c(-c2ccccc2)nn(C)c1=O (stereo unspecified),5.2 µM
6,COc1cc(C(=O)N2CCc3c([nH]c4c([N+](=O)[O-])c(OC)ccc34)C2C)cc(OC)c1OC (stereo unspecified),> 100 µM
7,CCN(CC)CCNC(=O)c1ccc(C)c(OCc2ccccc2)c1[N+](=O)[O-],81.4 µM

# System: UACC-62 melanoma
# Assay: inhibition of tumour cell growth, NCI panel, 48 h
row,Structure (SMILES),TGI
1,OCCNCCOc1ccc(/C(=C(/Cl)c2ccccc2)c2ccccc2)cc1,26.7 µM
2,COc1cc(C(=O)C/C(CCC(=O)Nc2ccc(Cl)cc2Cl)=N/NC(=O)C(=O)NN)ccc1O,> 100 µM
3,CC(=O)OCCOCNC(=S)N/N=C/c1ccc(Br)s1,> 100 µM
4,CC1CN1c1c(C(=O)/C=C/c2ccc(Cl)cc2)c(-c2ccccc2)nn(C)c1=O (stereo unspecified),5.69 µM
5,COc1cc(C(=O)N2CCc3c([nH]c4c([N+](=O)[O-])c(OC)ccc34)C2C)cc(OC)c1OC (stereo unspecified),39.5 µM
6,CCN(CC)CCNC(=O)c1ccc(C)c(OCc2ccccc2)c1[N+](=O)[O-],39.6 µM

# System: T-47D breast
# Assay: inhibition of tumour cell growth, NCI panel, 48 h
row,Structure (SMILES),TGI
1,CCN(CC)CCNC(=O)c1ccc(C)c(OCc2ccccc2)c1[N+](=O)[O-],58 µM

# System: HCT-15 colon
# Assay: inhibition of tumour cell growth, NCI panel, 48 h
row,Structure (SMILES),TGI
1,OCCNCCOc1ccc(/C(=C(/Cl)c2ccccc2)c2ccccc2)cc1,18.6 µM
2,COc1cc(C(=O)C/C(CCC(=O)Nc2ccc(Cl)cc2Cl)=N/NC(=O)C(=O)NN)ccc1O,> 100 µM
3,c1ccc(CSc2nc3ccccc3nc2-c2cccs2)cc1,> 100 µM
4,CC(=O)OCCOCNC(=S)N/N=C/c1ccc(Br)s1,> 100 µM
5,CC1CN1c1c(C(=O)/C=C/c2ccc(Cl)cc2)c(-c2ccccc2)nn(C)c1=O (stereo unspecified),3.55 µM
6,COc1cc(C(=O)N2CCc3c([nH]c4c([N+](=O)[O-])c(OC)ccc34)C2C)cc(OC)c1OC (stereo unspecified),> 100 µM
7,CCN(CC)CCNC(=O)c1ccc(C)c(OCc2ccccc2)c1[N+](=O)[O-],47.4 µM

# System: BT-549 breast
# Assay: inhibition of tumour cell growth, NCI panel, 48 h
row,Structure (SMILES),TGI
1,CCN(CC)CCNC(=O)c1ccc(C)c(OCc2ccccc2)c1[N+](=O)[O-],> 50.6 µM

# System: PC-3 prostate
# Assay: inhibition of tumour cell growth, NCI panel, 48 h
row,Structure (SMILES),TGI
1,CCN(CC)CCNC(=O)c1ccc(C)c(OCc2ccccc2)c1[N+](=O)[O-],> 100 µM

# System: RXF-631 renal
# Assay: inhibition of tumour cell growth, NCI panel, 48 h
row,Structure (SMILES),TGI
1,COc1cc(C(=O)C/C(CCC(=O)Nc2ccc(Cl)cc2Cl)=N/NC(=O)C(=O)NN)ccc1O,> 100 µM
2,COc1cc(C(=O)N2CCc3c([nH]c4c([N+](=O)[O-])c(OC)ccc34)C2C)cc(OC)c1OC (stereo unspecified),> 100 µM

# System: TK-10 renal
# Assay: inhibition of tumour cell growth, NCI panel, 48 h
row,Structure (SMILES),TGI
1,OCCNCCOc1ccc(/C(=C(/Cl)c2ccccc2)c2ccccc2)cc1,15.9 µM
2,COc1cc(C(=O)C/C(CCC(=O)Nc2ccc(Cl)cc2Cl)=N/NC(=O)C(=O)NN)ccc1O,> 100 µM
3,c1ccc(CSc2nc3ccccc3nc2-c2cccs2)cc1,> 100 µM
4,CC(=O)OCCOCNC(=S)N/N=C/c1ccc(Br)s1,> 100 µM
5,CC1CN1c1c(C(=O)/C=C/c2ccc(Cl)cc2)c(-c2ccccc2)nn(C)c1=O (stereo unspecified),8.94 µM
6,COc1cc(C(=O)N2CCc3c([nH]c4c([N+](=O)[O-])c(OC)ccc34)C2C)cc(OC)c1OC (stereo unspecified),> 100 µM
7,CCN(CC)CCNC(=O)c1ccc(C)c(OCc2ccccc2)c1[N+](=O)[O-],98.1 µM

# System: HS 578T breast
# Assay: inhibition of tumour cell growth, NCI panel, 48 h
row,Structure (SMILES),TGI
1,CCN(CC)CCNC(=O)c1ccc(C)c(OCc2ccccc2)c1[N+](=O)[O-],> 63.6 µM

# System: A549 NSCLC
# Assay: inhibition of tumour cell growth, NCI panel, 48 h
row,Structure (SMILES),TGI
1,OCCNCCOc1ccc(/C(=C(/Cl)c2ccccc2)c2ccccc2)cc1,12.8 µM
2,COc1cc(C(=O)C/C(CCC(=O)Nc2ccc(Cl)cc2Cl)=N/NC(=O)C(=O)NN)ccc1O,> 100 µM
3,c1ccc(CSc2nc3ccccc3nc2-c2cccs2)cc1,> 100 µM
4,CC(=O)OCCOCNC(=S)N/N=C/c1ccc(Br)s1,> 100 µM
5,CC1CN1c1c(C(=O)/C=C/c2ccc(Cl)cc2)c(-c2ccccc2)nn(C)c1=O (stereo unspecified),> 10 µM
6,COc1cc(C(=O)N2CCc3c([nH]c4c([N+](=O)[O-])c(OC)ccc34)C2C)cc(OC)c1OC (stereo unspecified),> 100 µM
7,CCN(CC)CCNC(=O)c1ccc(C)c(OCc2ccccc2)c1[N+](=O)[O-],> 100 µM

# System: NCI-H522 lung
# Assay: inhibition of tumour cell growth, NCI panel, 48 h
row,Structure (SMILES),TGI
1,OCCNCCOc1ccc(/C(=C(/Cl)c2ccccc2)c2ccccc2)cc1,28.8 µM
2,COc1cc(C(=O)C/C(CCC(=O)Nc2ccc(Cl)cc2Cl)=N/NC(=O)C(=O)NN)ccc1O,> 100 µM
3,c1ccc(CSc2nc3ccccc3nc2-c2cccs2)cc1,> 100 µM
4,CC(=O)OCCOCNC(=S)N/N=C/c1ccc(Br)s1,> 100 µM
5,CC1CN1c1c(C(=O)/C=C/c2ccc(Cl)cc2)c(-c2ccccc2)nn(C)c1=O (stereo unspecified),5.99 µM
6,COc1cc(C(=O)N2CCc3c([nH]c4c([N+](=O)[O-])c(OC)ccc34)C2C)cc(OC)c1OC (stereo unspecified),> 100 µM
7,CCN(CC)CCNC(=O)c1ccc(C)c(OCc2ccccc2)c1[N+](=O)[O-],76.5 µM

# System: MCF7 breast
# Assay: inhibition of tumour cell growth, NCI panel, 48 h
row,Structure (SMILES),TGI
1,CCN(CC)CCNC(=O)c1ccc(C)c(OCc2ccccc2)c1[N+](=O)[O-],> 53.1 µM

# System: UO-31 renal
# Assay: inhibition of tumour cell growth, NCI panel, 48 h
row,Structure (SMILES),TGI
1,OCCNCCOc1ccc(/C(=C(/Cl)c2ccccc2)c2ccccc2)cc1,22.2 µM
2,COc1cc(C(=O)C/C(CCC(=O)Nc2ccc(Cl)cc2Cl)=N/NC(=O)C(=O)NN)ccc1O,> 100 µM
3,c1ccc(CSc2nc3ccccc3nc2-c2cccs2)cc1,> 100 µM
4,CC(=O)OCCOCNC(=S)N/N=C/c1ccc(Br)s1,> 100 µM
5,CC1CN1c1c(C(=O)/C=C/c2ccc(Cl)cc2)c(-c2ccccc2)nn(C)c1=O (stereo unspecified),> 10 µM
6,COc1cc(C(=O)N2CCc3c([nH]c4c([N+](=O)[O-])c(OC)ccc34)C2C)cc(OC)c1OC (stereo unspecified),> 100 µM
7,CCN(CC)CCNC(=O)c1ccc(C)c(OCc2ccccc2)c1[N+](=O)[O-],50.5 µM

# System: K-562 leukemia
# Assay: inhibition of tumour cell growth, NCI panel, 48 h
row,Structure (SMILES),TGI
1,OCCNCCOc1ccc(/C(=C(/Cl)c2ccccc2)c2ccccc2)cc1,11 µM
2,COc1cc(C(=O)C/C(CCC(=O)Nc2ccc(Cl)cc2Cl)=N/NC(=O)C(=O)NN)ccc1O,> 100 µM
3,c1ccc(CSc2nc3ccccc3nc2-c2cccs2)cc1,> 100 µM
4,CC(=O)OCCOCNC(=S)N/N=C/c1ccc(Br)s1,> 100 µM
5,CC1CN1c1c(C(=O)/C=C/c2ccc(Cl)cc2)c(-c2ccccc2)nn(C)c1=O (stereo unspecified),8.8 µM
6,COc1cc(C(=O)N2CCc3c([nH]c4c([N+](=O)[O-])c(OC)ccc34)C2C)cc(OC)c1OC (stereo unspecified),> 100 µM
7,CCN(CC)CCNC(=O)c1ccc(C)c(OCc2ccccc2)c1[N+](=O)[O-],49.2 µM

# System: MALME-3M melanoma
# Assay: inhibition of tumour cell growth, NCI panel, 48 h
row,Structure (SMILES),TGI
1,COc1cc(C(=O)C/C(CCC(=O)Nc2ccc(Cl)cc2Cl)=N/NC(=O)C(=O)NN)ccc1O,> 100 µM
2,c1ccc(CSc2nc3ccccc3nc2-c2cccs2)cc1,> 100 µM
3,CC(=O)OCCOCNC(=S)N/N=C/c1ccc(Br)s1,> 100 µM
4,CC1CN1c1c(C(=O)/C=C/c2ccc(Cl)cc2)c(-c2ccccc2)nn(C)c1=O (stereo unspecified),> 10 µM
5,CCN(CC)CCNC(=O)c1ccc(C)c(OCc2ccccc2)c1[N+](=O)[O-],31.2 µM

# System: SK-OV-3 ovarian
# Assay: inhibition of tumour cell growth, NCI panel, 48 h
row,Structure (SMILES),TGI
1,OCCNCCOc1ccc(/C(=C(/Cl)c2ccccc2)c2ccccc2)cc1,10.4 µM
2,COc1cc(C(=O)C/C(CCC(=O)Nc2ccc(Cl)cc2Cl)=N/NC(=O)C(=O)NN)ccc1O,> 100 µM
3,c1ccc(CSc2nc3ccccc3nc2-c2cccs2)cc1,> 100 µM
4,CC(=O)OCCOCNC(=S)N/N=C/c1ccc(Br)s1,> 100 µM
5,CC1CN1c1c(C(=O)/C=C/c2ccc(Cl)cc2)c(-c2ccccc2)nn(C)c1=O (stereo unspecified),5.76 µM
6,CCN(CC)CCNC(=O)c1ccc(C)c(OCc2ccccc2)c1[N+](=O)[O-],> 75.9 µM

# System: A498 renal
# Assay: inhibition of tumour cell growth, NCI panel, 48 h
row,Structure (SMILES),TGI
1,COc1cc(C(=O)C/C(CCC(=O)Nc2ccc(Cl)cc2Cl)=N/NC(=O)C(=O)NN)ccc1O,> 100 µM
2,CC(=O)OCCOCNC(=S)N/N=C/c1ccc(Br)s1,> 100 µM

# — PubChem BioAssay (NCI)
